Assay results as given in patent US20080199897A1, “CLASS II HISTONE DEACETYLASE WHOLE CELL ENZYME ASSAY” (MethylGene Inc., priority 2007, published 2008).
Structures can show the parent of a compound that is named as a salt. Where two headings read alike, the source gives them in different places.

What was measured:
[1] = test system: Class I and Class II HDACs; assay: enzymatic reactivity of substrates for Class I and Class II HDACs; type: biochemical; conditions: FIG. 12 legend
Procedure: (§1) A 30 mM stock of Boc-Lys(TFA)-AMC substrate was prepared in DMSO. 2 μl test compound in DMSO was diluted in 50 μl buffer (25 mM HEPES, pH 8.0, 137 mM NaCl, 2.7 mM KCl, 1 mM MgCl2, 0.1% BSA) and pre-incubated with Class II HDAC enzyme (30 μl of a final enzyme concentration of 0.1-0.2 nM) for 10 minutes at room temperature. Reaction was started by adding 18 μl Boc-Lys(TFA)-AMC substrate and incubating at 37° C. for 20-30 minutes. The reaction was stopped by adding 50 μl trypsin (1 mg/ml) and a known HDAC inhibitor. The plate was then incubated in the dark for 20 minutes at room temperature and read with Ex=360 nm, Em=470 nm, cutoff filter at 435 nm.
as §1, with “of Boc-Lys(thioAc)-AMC” for “of Boc-Lys(TFA)-AMC”, “in 15” for “in 50”, “enzyme (15” for “enzyme (30”, “of 50-500” for “of 0.1-0.2”, “μl Boc-Lys(thioAc)-AMC” for “μl Boc-Lys(TFA)-AMC”, “for 30-60” for “for 20-30”

Du145 = assay: whole cell deacetylase assay with Boc-Lys(Ac)-AMC in Du145 cells
Procedure: (§2) Freshly trypsinized cells were dispensed into 96-well black Costar E1A/RIA plates (Corning Inc., Corning, N.Y.). Small molecule substrate Boc-Lys(Ac)-AMC (Bachem Biosciences Inc., King of Prussia, Philadelphia) was added to cell suspension with the final concentration of 300 uM. Cells were placed in 37° C. incubator with 5% CO2 for 90 minutes. […] With the presence of 1% NP-40, both excellular and intracellular HDAC activity was measured in cultured cells altogether. Fluorescence was developed for 15 minutes at 37 C and read in a fluorometer (SPECTRAMAX GeminiXS, Molecular Devices, Sunnylvale, Calif.) with an excitation wavelength at 360 nm, emission at 470 nm, and a cutoff of 435 nm.

293T = assay: whole cell deacetylase assay with Boc-Lys(Ac)-AMC in 293T cells; conditions: read-out: whole cell deacetylase IC50, 293T
Procedure: as §2

HCT116 = assay: whole cell deacetylase assay with Boc-Lys(Ac)-AMC in HCT116 cells
Procedure: as §2

Jurkat T = assay: whole cell deacetylase assay with Boc-Lys(Ac)-AMC in Jurkat T cells; conditions: read-out: whole cell deacetylase IC50, Jurkat T
Procedure: as §2

A549 = assay: whole cell deacetylase assay with Boc-Lys(Ac)-AMC in A549 cells
Procedure: as §2

Panc-1 = assay: whole cell deacetylase assay with Boc-Lys(Ac)-AMC in Panc-1 cells; conditions: read-out: whole cell deacetylase IC50, Panc-1, pre-incubated with inhibitor 16 hours, Boc-Lys(Ac)-AMC substrate, mean of at least 2 experiments
Procedure: as §2

[2] = test system: CD-1 mouse whole blood cells; assay: deacetylase activity in serum from mouse whole blood contacted with substrate; type: cell-based; conditions: 300 uM substrate
Procedure: CD-1 Mouse blood was collected in heparin tubes and cells were counted by Coulter counter (Beckman Coulter, Ville St. Laurent, Quebec). The amount of whole blood containing 1.6×10E6 white blood cells was aliquoted and the volume was brought up to 200 ul with RPMI (+10% FBS). Boc-Ac-Lys-AMC was added to a final concentration of 300 uM. After various amounts of time, the mix was spun (400×g for 5 min), and 50 ul of the supernatant (serum) was transferred to a 96-well plate. The amount of deacetylated product Boc-Lys-AMC present in the supernatant was detected by adding an equal volume of the developer mix and reading after 15 minutes incubation. […] Thus total HDAC activity in primary cells could be easily monitored in bodily fluid where animals were contacted with HDAC substrates ex vivo.

[3] = test system: total HDAC activity in human white blood cells; assay: ex vivo inhibition of whole cell HDAC activity in human white blood cells; type: cell-based; conditions: 16 hours incubation; Boc-Lys(ac)-AMC substrate
Procedure: Whole blood (human or mouse) was centrifuged at 2500 rpm for 10 minutes at ambient temperature in a Sorvall RT-7 centrifuge (Mandel Scientific Co., Guelph, Ontario). Plasma was removed and buffy coat was collected. Five volumes of Erythrocyte Lysis Buffer (EL) (Qiagen Canada Inc., Mississauga, Ontario) were added to buffy coat. Buffy coat was incubated on ice for 20 minutes before it was centrifuged at 400 g for 10 minutes at 4° C. Supernatant was removed and buffy coat was washed twice with EL buffer and re-centrifugation. Buffy coat was resuspended in RPMI media and cells (white blood cells) were counted with trypan blue exclusion. White blood cells were plated into 96-well dish in RPMI plus 10% fetal bovine serum. HDAC small molecule substrate Boc-Lys(ac)-AMC was added to cell suspensions and incubated with cells for 90 minutes at 37° C. before reaction was stopped, and fluorescence was developed and read.
Human white blood cells (buffy coat) isolated from human donors were plated into 96-well dish in RPMI plus 10% fetal bovine serum. HDAC inhibitors with a range of dilutions were incubated with cells for 16 hours at 37 C with 5% CO2. HDAC small molecule substrate Boc-Lys(ac)-AMC was added into cell suspensions and incubated with cells for 90 minutes before reaction was stopped, and fluorescence was developed and read.

293T cells = assay: intracellular and excellular deacetylase activity of 293T cells; type: cell-based, human; conditions: 300 uM substrate
Procedure: Freshly trypsinized cells (293T) were dispensed into 96-well black Costar E1A/RIA plates (Corning Inc., Corning, N.Y.). Small molecule substrate Boc-Lys(Ac)-AMC (Bachem Biosciences Inc., King of Prussia, Philadelphia) were added to cell suspension with the final concentration of 300 uM. Cells were placed in 37° C. incubator with 5% CO2 for indicated time period. Supernatant was collected if necessary and subject to spinning. Reaction was stopped by adding a freshly prepared Fluor-de-Lys™ developer (Biomol, Plymouth Meeting, Philadelphia) with 1 uM TSA (Biomol, Plymouth Meeting, Philadelphia) in assay buffer (25 mM Tris, HCl pH8.0, 137 mM NaCl, 2.7 mM KCl, 1 mM MgCl2) plus 1% NP-40 into supernatant or cell pellets. Fluorescence was developed for 15 minutes at 37° C. and read in a fluorometer (SPECTRAMAX GeminiXS, Molecular Devices, Sunnylvale, Calif.) with an excitation wavelength at 360 nm, emission at 470 nm, and a cutoff of 435 nm. […] In contrast, when there is no substrates added, neither supernatant from cultured cells nor cell pellets have HDAC activity.

CC(=S)NCCCCC(NC(=O)OC(C)(C)C)C(=O)Nc1ccc2c(C)cc(=O)oc2c1 (stereo not shown) [Boc-Lys(thioAc)-AMC]
HDAC class specificity of substrate [1]: specific for Class II HDACs

Nc1ccccc1NC(=O)c1ccc(CNC(=O)OCc2cccnc2)cc1 [MS-275]
IC50 (Du145; read-out: whole cell deacetylase IC50, Du145, Du145 cells, pre-incubated with inhibitor 16 hours, Boc-Lys(Ac)-AMC substrate, mean of at least 2 experiments): 300 nM | IC50 (293T; 293T cells, pre-incubated with inhibitor 16 hours, Boc-Lys(Ac)-AMC substrate, mean of at least 2 experiments): 2000 nM | IC50 (HCT116; read-out: whole cell deacetylase IC50, HCT116, HCT116 cells, pre-incubated with inhibitor 16 hours, Boc-Lys(Ac)-AMC substrate, mean of at least 2 experiments): 3000 nM | IC50 (Jurkat T; Jurkat T cells, pre-incubated with inhibitor 16 hours, Boc-Lys(Ac)-AMC substrate, mean of at least 2 experiments): 300 nM | IC50 (A549; read-out: whole cell deacetylase IC50, A549, A549 cells, pre-incubated with inhibitor 16 hours, Boc-Lys(Ac)-AMC substrate, mean of at least 2 experiments): 400 nM | IC50 (Panc-1): 500 nM

CC(=O)O[C@H]1C(=O)[C@@]2(C)[C@H]([C@H](OC(=O)c3ccccc3)[C@]3(O)C[C@H](OC(=O)[C@H](O)[C@@H](NC(=O)c4ccccc4)c4ccccc4)C(C)=C1C3(C)C)[C@]1(OC(C)=O)CO[C@@H]1C[C@@H]2O [Taxol]
IC50 (293T; Homo sapiens, HEK-293T): > 50000 nM

Cc1cc(=O)oc2cc(NC(=O)[C@H](CCCCN)NC(=O)OC(C)(C)C)ccc12 [Boc-Lys-AMC]
cell permeability [2]: permeable to come out from cells

Cc1cc(=O)oc2cc(NC(=O)[C@H](CCCCNC(=O)C(F)(F)F)NC(=O)OC(C)(C)C)ccc12 [Boc-Lys(Tfa)-AMC]
HDAC class specificity of substrate [1]: specific for Class II HDACs

O=C(/C=C/c1ccc(CN(CCO)CCc2c[nH]c3ccccc23)cc1)NO [LAQ-824]
inhibition of whole cell HDAC activity in human white blood cells [3]: dose-dependent inhibition | IC50 (Du145; Homo sapiens, DU-145, read-out: whole cell deacetylase IC50, Du145): 50 nM | IC50 (293T; Homo sapiens, HEK-293T): 40 nM | IC50 (HCT116; Homo sapiens, HCT-116, read-out: whole cell deacetylase IC50, HCT116): 60 nM | IC50 (Jurkat T; Homo sapiens, Jurkat): 40 nM | IC50 (A549; Homo sapiens, A549, read-out: whole cell deacetylase IC50, A549): 20 nM

CC(=O)NCCCC[C@H](NC(=O)OC(C)(C)C)C(=O)Nc1ccc2c(C)cc(=O)oc2c1 [Boc-Lys(Ac)-AMC]
cell permeability [2]: permeable to go inside cells | cell permeability (293T cells): could permeablize into cells | HDAC class specificity of substrate [1]: specific for Class I HDACs, especially HDAC1, HDAC2 and HDAC6
